According to US9833497B2, “Human originated EGF domain proteins and use of the same” (CHENGDU SOURCEBIO LIMITED-LIABILITY COMPANY, priority 2013, dated 2017):

Legend:
Type in all cases: cell-based
[1] = tested on: Serratia marcescens; experiment: MIC against Gram-negative bacteria: Serratia marcescens; conditions: for MIC against S. marcescens: Serratia marcescens
Procedure, shortened: (§1)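 Antibacterial activity of purified human EGF domain proteins: two-fold concentration series, triplicate wells, LB broth, 5×10^5 CFU/mL bacteria, 37° C shaking incubation. The lowest concentration without growth defines the MIC.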

[2] = tested on: Moraxella catarrhalis; experiment: MIC against Gram-negative bacteria: Moraxella catarrhalis; conditions: for MIC against M. catarrhalis: Moraxella catarrhalis
Procedure, shortened: as §1

[3] = tested on: Citrobacter diversus; experiment: MIC against Gram-negative bacteria: Citrobacter diversus; conditions: for MIC against C. diversus: Citrobacter diversus
Procedure, shortened: as §1

[4] = tested on: Klebsiella pneumonia; experiment: MIC against Gram-negative bacteria: Klebsiella pneumonia; conditions: for MIC against K. pneumonia: Klebsiella pneumonia
Procedure, shortened: as §1

[5] = tested on: Enterobacter cloacae; experiment: MIC against Gram-negative bacteria: Enterobacter cloacae; conditions: for MIC against E. cloacae: Enterobacter cloacae
Procedure, shortened: as §1

[6] = tested on: E. coli DH5α; experiment: Antibacterial activity: MIC and growth curve against E. coli DH5α in 96-well plate; conditions: minimal inhibitory concentration against E. coli DH5α; 96-well plate, 5×10^5 CFU/mL, 37° C., judged after 8 h
Procedure, shortened: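 Log-phase DH5α (OD600 about 0.5, 37° C, 185 rpm in LB) was pelleted, resuspended in fresh LB and seeded at 5×10^5 CFU/mL with recombinant protein at 50, 25 and 12.5 μg/mL (two-fold series), in triplicate. Plates were shaken at 175 rpm, 37° C, and OD600 was read every 30 min. MIC was the lowest concentration with no growth.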

[7] = tested on: Proteus mirabilis; experiment: MIC against Gram-negative bacteria: Proteus mirabilis; conditions: for MIC against P. mirabilis: Proteus mirabilis
Procedure, shortened: as §1

[8] = tested on: Aeromonas hydrophila; experiment: MIC against Gram-negative bacteria: Aeromonas hydrophila; conditions: for MIC against A. hydrophila: Aeromonas hydrophila
Procedure, shortened: as §1

[9] = tested on: E. coli BL21; experiment: MIC against Gram-negative bacteria: E. coli BL21
Procedure, shortened: as §1

[10] = tested on: Proteus vulgaris; experiment: MIC against Gram-negative bacteria: Proteus vulgaris; conditions: for MIC against P. vulgaris: Proteus vulgaris
Procedure, shortened: as §1

[11] = tested on: Pseudomonas aeruginosa; experiment: MIC against Gram-negative bacteria: Pseudomonas aeruginosa; conditions: for MIC against P. aeruginosa: Pseudomonas aeruginosa
Procedure, shortened: as §1

[12] = 5×10^5 CFU/mL, 10 h cultivation at 37° C.
[13] = E. coli BL21, 5×10^5 CFU/mL, 10 h cultivation at 37° C.
[14] = 96-well plate, 5×10^5 CFU/mL, 37° C., 10 h
[15] = E. coli BL21, 96-well plate, 5×10^5 CFU/mL, 37° C., 10 h

PRT925 (DINECHSDPCQNDATCLDKIGGFTCLCMPGFKGVHCE; listed as Homo sapiens)
25 µg/mL: MIC ([3]; C. diversus, 10 h cultivation at 37° C.) | MIC ([5]; E. cloacae, 10 h cultivation at 37° C.) | MIC ([7]; P. mirabilis, 10 h cultivation at 37° C.) | MIC ([9]; E. coli BL21, 10 h cultivation at 37° C.)
12.5 µg/mL: MIC ([1]; S. marcescens, 10 h cultivation at 37° C.) | MIC ([2]; M. catarrhalis, 10 h cultivation at 37° C.) | MIC ([4]; K. pneumonia, 10 h cultivation at 37° C.) | MIC [6]
50 µg/mL: MIC ([8]; A. hydrophila, 10 h cultivation at 37° C.) | MIC ([10]; P. vulgaris, 10 h cultivation at 37° C.) | MIC ([11]; P. aeruginosa, 10 h cultivation at 37° C.)

PRT1448 (ACREGRFGQSCQEQCPGISGCRGLTFCLPDPYGCSCGSGWRGSQCQ; listed as Homo sapiens)
12.5 µg/mL: MIC against A. hydrophila [8, 12] | MIC against P. vulgaris [10, 12] | MIC against P. aeruginosa [11, 12]
25 µg/mL: MIC against S. marcescens [1, 12] | MIC against C. diversus [3, 12] | MIC against K. pneumonia [4, 12] | MIC [6] | MIC against P. mirabilis [7, 12]
50 µg/mL: MIC against M. catarrhalis [2, 12] | MIC against E. cloacae [5, 12] | MIC against E. coli BL21 [9, 13]

PRT1430 (DINECAHADPCFPGSSCINTMPGFHCEACPRGYKGTQVS; listed as Homo sapiens)
12.5 µg/mL: MIC against M. catarrhalis [2, 12] | MIC against K. pneumonia [4, 12] | MIC against A. hydrophila [8, 12] | MIC against E. coli BL21 [9, 13] | MIC against P. vulgaris [10, 12]
25 µg/mL: MIC against S. marcescens [1, 12] | MIC against C. diversus [3, 12] | MIC against E. cloacae [5, 12] | MIC [6] | MIC against P. mirabilis [7, 12] | MIC against P. aeruginosa [11, 12]

PRT1227 (NLKLCDASNHCDRHGVCNNFNHCHCEKGYNPPYCQ; listed as Homo sapiens)
50 µg/mL: MIC [6]
12.5 µg/mL: MIC against S. marcescens [1, 14] | MIC against M. catarrhalis [2, 14] | MIC against C. diversus [3, 14] | MIC against E. cloacae [5, 14] | MIC against P. mirabilis [7, 14] | MIC against A. hydrophila [8, 14] | MIC against P. aeruginosa [11, 14]
25 µg/mL: MIC against K. pneumonia [4, 14] | MIC against E. coli BL21 [9, 15] | MIC against P. vulgaris [10, 14]

PRT732 (SVNPCAFSRCSHLCLLSSQGPHFYSCVCPSGWSLSPDLLNCL; listed as Homo sapiens)
50 µg/mL: MIC M. catarrhalis [2, 14] | MIC K. pneumonia [4, 14] | MIC E. coli BL21 [9, 14]
25 µg/mL: MIC C. diversus [3, 14] | MIC E. cloacae [5, 14] | MIC P. mirabilis [7, 14] | MIC P. vulgaris [10, 14]
12.5 µg/mL: MIC S. marcescens [1, 14] | MIC [6] | MIC A. hydrophila [8, 14] | MIC P. aeruginosa [11, 14]

PRT1241 (WSSTCRRPCQCNTAAARCEQATGACVCKPGWWGRRCS; listed as Homo sapiens)
12.5 µg/mL: MIC against S. marcescens [1, 14] | MIC against C. diversus [3, 14] | MIC against E. cloacae [5, 14] | MIC against P. aeruginosa [11, 14]
50 µg/mL: MIC against K. pneumonia [4, 14] | MIC [6] | MIC against P. mirabilis [7, 14] | MIC against A. hydrophila [8, 14]
25 µg/mL: MIC against M. catarrhalis [2, 14] | MIC against E. coli BL21 [9, 15] | MIC against P. vulgaris [10, 14]

PRT1308 (TSPQCPRKCDPNANCVQDSAGASTCACAAGYSGNGIFCS; listed as Homo sapiens)
50 µg/mL: MIC against S. marcescens [1, 14] | MIC against M. catarrhalis [2, 14] | MIC against E. cloacae [5, 14] | MIC [6] | MIC against P. aeruginosa [11, 14]
25 µg/mL: MIC against C. diversus [3, 14] | MIC against P. mirabilis [7, 14]
12.5 µg/mL: MIC against K. pneumonia [4, 14] | MIC against A. hydrophila [8, 14] | MIC against E. coli BL21 [9, 15] | MIC against P. vulgaris [10, 14]
